# In ChEMBL document CHEMBL1156865, “Chemical delivery system of metaiodobenzylguanidine (MIBG) to the central nervous system” (J Med Chem, 2010):
# Key:
# Brain [1] = experiment: Stability in Sprague-Dawley rat brain assessed as polar radioactive metabolite level at 15 to 120 MBq, iv after 3 mins; format: ADME, organism-based; conditions: in vivo, 0.05 h
# Brain [2] = experiment: Drug uptake in Sprague-Dawley rat brain at 15 to 120 MBq, iv after 3 mins; format: ADME, organism-based; conditions: in vivo, 0.05 h
# [3] = Stability in Sprague-Dawley rat blood at 10 MBq assessed as radioactive compound recovery; format: ADME, tissue-based; conditions: whole blood, read-out: Stability
# [4] = Stability in Sprague-Dawley rat brain assessed as unchanged parent compound level at 15 to 120 MBq, iv after 60 mins; format: ADME, organism-based; conditions: read-out: Stability
# [5] = Stability in Sprague-Dawley rat brain assessed as unchanged parent compound level at 15 to 120 MBq, iv after 3 mins; format: ADME, organism-based; conditions: read-out: Stability
# Brain [6] = experiment: Drug uptake in Sprague-Dawley rat brain at 15 to 120 MBq, iv after 60 mins; format: ADME, organism-based; conditions: in vivo, 1 h
# Brain [7] = experiment: Stability in Sprague-Dawley rat brain assessed as polar radioactive metabolite level at 15 to 120 MBq, iv after 60 mins; format: ADME, organism-based; conditions: in vivo, 1 h
structure (smiles),measurement,setting,value
[11CH3]N1C=C(C(=O)NC(=N)NCc2cccc(I)c2)Cc2ccccc21,Activity,Brain [1],4%
same,Drug uptake,Brain [2],0.1 % ID/g
same,remaining at 10 MBq,[3],> 90%
same,remaining at 1 h,[4],59%
same,remaining at 0.05 h,[5],96%
same,Drug uptake,Brain [6],0.06 % ID/g
same,Activity,Brain [7],41%
